Earlier results, collected in PubChem BioAssay AID1259410 (Chemical Carcinogenesis Research Information System (CCRIS), 2018).

System: rodent tumor promotion studies, tumor incidence
Test: CCRIS tumor promotion studies

## O=P(O)(O)OC1C(OP(=O)(O)O)C(OP(=O)(O)O)C(OP(=O)(O)O)C(OP(=O)(O)O)C1OP(=O)(O)O (configuration not stated)
Carcinogen: N-BUTYL-N-(4-HYDROXYBUTYL)NITROSAMINE, 3817-11-6, Doses [Carcinogen]: 0.05% IN DRINKING WATER FOR 4 WK, Doses [Promoter]: 0, 2% IN DIET BEGINNING POST CARCINOGEN TREATMENT AND CONTINUING FOR 32 WK (STUDY DURATION: 36 WK), Route [Carcinogen]: ORAL, Route [Promoter]: ORAL, Species: RAT, Strain/Sex: F344/MALE
  outcome: urinary bladder: papilloma, carcinoma

## C[C@H](N)C(=O)NCC(=O)N[C@H]1CSSC[C@@H](C(=O)O)NC(=O)[C@H](CO)NC(=O)[C@H]([C@@H](C)O)NC(=O)[C@H](Cc2ccccc2)NC(=O)[C@H]([C@@H](C)O)NC(=O)[C@H](CCCCN)NC(=O)[C@H](Cc2c[nH]c3ccccc23)NC(=O)[C@H](Cc2ccccc2)NC(=O)[C@H](Cc2ccccc2)NC(=O)[C@H](CC(N)=O)NC(=O)[C@H](CCCCN)NC1=O
Carcinogen: N-METHYL-N'-NITRO-N-NITROSOGUANIDINE, 70-25-7, Doses [Carcinogen]: 25 UG/ML DRINKING WATER FOR 25 WK, Doses [Promoter]: 0, 100, 200 UG/KG IN OLIVE OIL 1/2 D BEGINNING POST CARCINOGEN DOSE FOR DURATION OF STUDY (STUDY DURATION: 52 WK), Doses [Promoter]: 0, 100, 200 UG/KG IN OLIVE OIL 1/2 D BEGINNING POST CARCINOGEN DOSE FOR DURATION OF STUDY (STUDY DURATION: 52 WK), Route [Carcinogen]: ORAL, Route [Promoter]: SUBCUTANEOUS, Species: RAT, Strain/Sex: WISTAR/MALE
  outcome: glandular stomach: adenocarcinoma

## CC1=CC[C@H]2C[C@@H]1C2(C)C
Carcinogen: 7,12-DIMETHYLBENZ(A)ANTHRACENE, Doses [Carcinogen]: TOP, Route [Carcinogen]: DERMAL, Route [Promoter]: DERMAL, Species: MOUSE
  outcome: integumentary system (skin)

## Clc1ccc(C(c2ccc(Cl)cc2)C(Cl)(Cl)Cl)cc1
Carcinogen: 2-(ACETYLAMINO)FLUORINE, Doses [Carcinogen]: DIET, Doses [Promoter]: IN DIET, Route [Carcinogen]: ORAL, Route [Promoter]: ORAL, Species: RAT, Strain/Sex: MALE
  outcome: liver
Carcinogen: N-METHYL-N'-NITRO-N-NITROSOGUANIDINE, 70-25-7, Doses [Carcinogen]: 50 PPM FOR 60 MIN, Doses [Promoter]: 0, 100 PPM IN DIET BEGINNING 14 WK POST CARCINOGEN DOSE (STUDY DURATION: 12 MO), Route [Carcinogen]: IMMERSION, Route [Promoter]: ORAL, Species: FISH, Strain/Sex: RAINBOW TROUT
  outcome: liver: tumor
Carcinogen: N-NITROSODIETHYLAMINE, 55-18-5, Doses [Carcinogen]: 90 MG/KG BW ONCE, Doses [Promoter]: 0, 300 PPM IN DIET FOR 53 WK BEGINNING 2 WK POST CARCINOGEN DOSE (STUDY DURATION: 55 WK), Route [Carcinogen]: INTRAPERITONEAL, Route [Promoter]: ORAL, Species: MOUSE, Strain/Sex: D2B6F1/MALE
  outcome: liver: hepatocellular adenoma, hepatocellular carcinoma
Doses [Carcinogen]: 0.5 PPM FOR 30 MIN, Doses [Promoter]: 0, 100 PPM IN DIET BEGINNING 14 WK POST CARCINOGEN DOSE (STUDY DURATION: 12 MO), Route [Carcinogen]: IMMERSION, Route [Promoter]: ORAL, Species: FISH, Strain/Sex: RAINBOW TROUT
  outcome: liver: tumor
Doses [Carcinogen]: 50 UG 2/WK FOR WK 1-4 OF STUDY THEN 75 UG 2/WK FOR WK 5-8, Doses [Promoter]: 0, 7.5 MG 2/WK FOR 14 WK BEGINNING 1 WK POST CARCINOGEN TREATMENT (STUDY DURATION: 1 YR), Route [Carcinogen]: GAVAGE, Route [Promoter]: GAVAGE, Species: RAT, Strain/Sex: WISTAR/MALE
  outcome: liver: carcinoma
Doses [Carcinogen]: 50 UG 2/WK FOR WK 1-4 OF STUDY THEN 75 UG 2/WK FOR WK 5-8, Doses [Promoter]: 0, 7.5 MG 2/WK FOR 14 WK BEGINNING 3 WK POST CARCINOGEN TREATMENT (STUDY DURATION: 1 YR), Route [Carcinogen]: GAVAGE, Route [Promoter]: GAVAGE, Species: RAT, Strain/Sex: WISTAR/MALE
  outcome: liver: carcinoma

## C=C1/C(=C\C=C2/CCC[C@]3(C)[C@@H]([C@H](C)CCCC(C)(C)O)CC[C@@H]23)C[C@@H](O)C[C@@H]1O
Carcinogen: 7,12-DIMETHYLBENZ[A]ANTHRACENE, 57-97-6, Doses [Carcinogen]: 50 NMOL IN 200 µL ACETONE 2/WK FOR 16 WK, Doses [Promoter]: 0, 0.25, 0.5 NMOL IN 200 µL ACETONE APPLIED 1 HR PRIOR TO CARCINOGEN DOSES 2/WK FOR 16 WK (STUDY DURATION: 16 WK), Doses [Promoter]: 0, 0.25, 0.5 NMOL IN 200 µL ACETONE APPLIED 1 HR PRIOR TO CARCINOGEN DOSES 2/WK FOR 16 WK (STUDY DURATION: 16 WK), Route [Carcinogen]: DERMAL, Route [Promoter]: DERMAL, Species: MOUSE, Strain/Sex: CD-1/FEMALE
  outcome: skin: tumors
Carcinogen: 7,12-DIMETHYLBENZ[A]ANTHRACENE, 57-97-6, Doses [Carcinogen]: 50 NMOL IN 200 µL ACETONE 2/WK FOR 16 WK, Doses [Promoter]: 0, 0.25 NMOL IN 200 µL ACETONE APPLIED 1 HR PRIOR TO AND 24 HR POST CARCINOGEN DOSES 2/WK FOR 16 WK (STUDY DURATION: 16, Route [Carcinogen]: DERMAL, Route [Promoter]: DERMAL, Species: MOUSE, Strain/Sex: CD-1/FEMALE
  outcome: skin: tumors
Carcinogen: 7,12-DIMETHYLBENZ[A]ANTHRACENE, 57-97-6, Doses [Carcinogen]: 50 NMOL IN 200 µL ACETONE 2/WK FOR 16 WK, Doses [Promoter]: 0, 0.5 NMOL IN 200 µL ACETONE APPLIED 24 HR POST CARCINOGEN DOSES 2/WK FOR 16 WK (STUDY DURATION: 16 WK), Route [Carcinogen]: DERMAL, Route [Promoter]: DERMAL, Species: MOUSE, Strain/Sex: CD-1/FEMALE
  outcome: skin: tumors
Carcinogen: N-METHYL-N'-NITRO-N-NITROSOGUANADINE, 70-25-7, Doses [Carcinogen]: 150 MG/L IN DRINKING WATER, Doses [Promoter]: 0, 2.5, 5 MG/KG IN DIET FOR DURATION OF STUDY BEGINNING 4 WK POST CARCINOGEN TREATMENT (STUDY DURATION: 32 WK), Doses [Promoter]: 0, 2.5, 5 MG/KG IN DIET FOR DURATION OF STUDY BEGINNING 4 WK POST CARCINOGEN TREATMENT (STUDY DURATION: 32 WK), Route [Carcinogen]: ORAL, Route [Promoter]: ORAL, Species: RAT, Strain/Sex: WISTAR/MALE
  outcome: glandular stomach: adenocarcinoma

## Oc1ccccc1-c1ccccc1
Carcinogen: 7,12-DIMETHYLBENZ[A]ANTHRACENE, 57-97-6, Doses [Carcinogen]: 10 UG 2/WK FOR 5 WK, Doses [Promoter]: 0, 5 MG 2/WK FOR 47 WK BEGINNING 1 WK AFTER LAST CARCINOGEN DOSE (STUDY DURATION: 53 WK), Route [Carcinogen]: DERMAL, Route [Promoter]: DERMAL, Species: MOUSE, Strain/Sex: CD-1/FEMALE
  outcome: skin: papilloma, carcinoma
Carcinogen: N-BUTYL-N-4(HYDROXYBUTYL)NITROSAMINE, 3817-11-6, Doses [Carcinogen]: 0.05% IN DRINKING WATER FOR 2 WK, Doses [Promoter]: 0, 2% IN DIET STARTING POST CARCINOGEN AND CONTINUING FOR 22 WK, LEFT URETER LIGATED 8 D POST CARCINOGEN (STUDY DURATION, Route [Carcinogen]: ORAL, Route [Promoter]: ORAL, Species: RAT, Strain/Sex: F344/MALE
  outcome: bladder: papilloma
Carcinogen: N-BUTYL-N-(4-HYDROXYBUTYL)NITROSAMINE, Doses [Carcinogen]: 0.05% IN DRINKING WATER FOR 4 WK, Doses [Promoter]: 2.0% IN DIET FOR 32 WK AFTER INITIATION, Route [Carcinogen]: ORAL, Route [Promoter]: ORAL, Species: RAT, Strain/Sex: F344/MALE
  outcome: urinary bladder: transitional cell carcinoma

## CC(CCC(=O)NCCS(=O)(=O)O)[C@H]1CC[C@H]2[C@@H]3CC[C@@H]4C[C@H](O)CC[C@]4(C)[C@H]3C[C@H](O)[C@]12C (some centres not stated)
Doses [Carcinogen]: IR, Route [Carcinogen]: RECTAL, Route [Promoter]: RECTAL, Species: RAT, Strain/Sex: MALE,FEMALE
  outcome: colon

## Nc1ncn[nH]1
Carcinogen: N-BIS(2-HYDROXYPROPYL)NITROSAMINE, Doses [Carcinogen]: 70 MG/100 G BW 1/WK FOR 4 WK, Doses [Promoter]: 2000 PPM IN DIET FOR 12 WK BEGINNING 1 WK AFTER INITIATION, Route [Carcinogen]: SUBCUTANEOUS, Route [Promoter]: ORAL, Species: RAT, Strain/Sex: WISTAR/MALE
  outcome: thyroid gland: adenoma, carcinoma

## O=C(CO)[C@@H](O)[C@H](O)[C@H](O)CO
Carcinogen: N-NITROSOMORPHOLINE, 59-89-2, Doses [Carcinogen]: 100 MG/KG/WK IN DRINKING WATER FOR 7 WK, Doses [Promoter]: 0, 120 G/L IN DRINKING WATER AD LIBITUM BEGINNING 2 D AFTER LAST CARCINOGEN DOSE (STUDY DURATION: 501 D), Route [Carcinogen]: ORAL, Route [Promoter]: ORAL, Species: RAT, Strain/Sex: SPRAGUE-DAWLEY/MALE
  outcome: liver: hepatocellular carcinoma

## COc1c(N2C[C@@H]3CCCN[C@@H]3C2)c(F)cc2c(=O)c(C(=O)O)cn(C3CC3)c12
Carcinogen: N-METHYL-N-NITROSOUREA, 684-93-5, Doses [Carcinogen]: 4.5 MG/KG BW 1/WK FOR FIRST 10 WK, Doses [Promoter]: 0, 500 MG/KG BW/D FOR 24 WK BEGINNING 14 WK POST CARCINOGEN FIRST DOSE (STUDY DURATION: 38 WK), Route [Carcinogen]: GAVAGE, Route [Promoter]: GAVAGE, Species: RAT, Strain/Sex: WISTAR/MALE, FEMALE
  outcome: forestomach: squamous cell papilloma, glandular stomach adenocarcinoma

## Oc1ccccc1Cl
Carcinogen: 7,12-DIMETHYLBENZ(A)ANTHRACENE, Doses [Carcinogen]: TOP, Route [Carcinogen]: DERMAL, Route [Promoter]: DERMAL, Species: MOUSE, Strain/Sex: FEMALE
  outcome: integumentary system (skin)

## Nc1nc2ncc(CNc3ccc(C(=O)N[C@@H](CCC(=O)O)C(=O)O)cc3)nc2c(=O)[nH]1
Carcinogen: N-ETHYL-N-(2-HYDROXYETHYL)NITROSAMINE, Doses [Carcinogen]: 0.1% IN DRINKING WATER FOR 1 WK, Doses [Promoter]: 300 MG/KG 1/WK FOR 8 WK THEN 100 MG/KG 1/WK FOR 27 WK, Route [Carcinogen]: ORAL, Route [Promoter]: SUBCUTANEOUS, Species: RAT, Strain/Sex: F344/MALE
  outcome: kidney: renal cell tumor
